The compounds below were run on cerebellar granule cells (assay: Test Example 11: SNP-induced death of cerebellar granule cells). Details: Rattus norvegicus; 10 µM added prior to SNP (1.5 µM); observation after 12 hours; read-out: cells alive.
Assay type: cell-based, rats

In the case of `CN1C(=O)C(c2c[nH]c3ccccc23)=C(c2cn(CCCN)c3ccccc23)C1=O` [Compound 19], the viability at 10 µM is reported as > 95%.

Each compound was assayed on erythrocytes (assay: Test Example 13: hydrogen peroxide-induced death of erythrocytes). Details: Homo sapiens, Erythrocyte; 20 µM added prior to hydrogen peroxide (300 µM); observation after 24 hours; read-out: ratios of dead erythrocytes (dark ghost cells).
Assay type: cell-based
Description: After human blood (2 mL) was centrifuged at 1000 rpm for 5 min, the resulting cell pellets containing erythrocytes were washed three times with a DMEM medium and the cells were resuspended in the same medium (15 mL) (about 5 × 10^8 cells/mL). Ten µL of this suspension was added with 10% FCS/DMEM (10 mL), and the cells were plated in 48 well plates (500 µL/well). When hydrogen peroxide (300 µM) was added to the erythrocyte culture solution and the cells were cultured for 24 hours, all erythrocytes were dead on observations under a light microscopy (all erythrocytes were subjected to shape changes from a bright, round and concave shape into a dark hemolytic ghost through multiple shape changes). On the other hand, Test Compound 14 (30 µM), Test Compound 18 (10 µM), Test Compound 19 (20 µM) or Test Compound 20 (20 µM) was added prior to the hydrogen peroxide addition.

Compound `CN1C(=O)C(c2c[nH]c3ccccc23)=C(c2cn(CCCN)c3ccccc23)C1=O` [Compound 19] has a cytotoxicity at 20 µM of 10%.

The compounds below were run on Porcine Ovarian Granulosa Cells (assay: Test Example 7: inhibition of SNP-induced apoptosis of undifferentiated POGC). Details: Sus scrofa; for complete inhibition of apoptosis; SNP 0.5 mM; cells observed after 48 hours; read-out: Minimum effective concentration.
Assay type: cell-based

Going from `O=C1NC(=O)C(c2c[nH]c3ccccc23)=C1c1c[nH]c2ccccc12` [Compound 13] to `O=C1C(c2c[nH]c3ccccc23)=C(c2c[nH]c3ccccc23)C(=O)N1O` [Compound 12], the minimal effective concentration rises from 5 µM to 15 µM (3-fold).

Going from `CN1C(=O)C(c2c[nH]c3ccccc23)=C(c2c[nH]c3ccccc23)C1O` (stereo not drawn) [Compound 16] to `CCCN1C(=O)C(c2c[nH]c3ccccc23)=C(c2c[nH]c3ccccc23)C1=O` [Compound 15], the minimal effective concentration falls from 5 µM to 3 µM (1.7-fold).

`Cn1cc(C2=C(c3cn(CCCN)c4ccccc34)C(=O)NC2=O)c2ccccc21` [Compound 26] and `CN1C(=O)C(c2c[nH]c3ccccc23)=C(c2cn(CCCN)c3ccccc23)C1=O` [Compound 19] are within 1.5-fold of each other in minimal effective concentration: 1 µM for the first, 0.7 µM for the second.

First: N=C(N)SCCCn1cc(C2=C(c3c[nH]c4ccccc34)C(=O)NC2=O)c2ccccc21 [Compound 27]
Second: CN1C(=O)C(c2c[nH]c3ccccc23)=C(c2cn(CCCNC(=O)c3ccccc3)c3ccccc23)C1=O [Compound 21]
The minimal effective concentration of the first is 7-fold lower: 1 µM for the first, 7 µM for the second.

First: CN1C(=O)C(c2c[nH]c3ccccc23)C(c2c[nH]c3ccccc23)C1=O (stereo not drawn) [Compound 30]
Second: CN1C(=O)C(c2c[nH]c3ccccc23)=C(c2c[nH]c3ccc(Cl)cc23)C1=O [Compound 24]
The minimal effective concentration of the first is 3.3-fold higher: 10 µM for the first, 3 µM for the second.

`CN1C(=O)C(c2c[nH]c3ccccc23)=C(c2cn(C(=O)OC(C)(C)C)c3ccccc23)C1=O` [Compound 22] and `CN1C(=O)C(c2cn(C(=O)OC(C)(C)C)c3ccccc23)=C(c2cn(C(=O)OC(C)(C)C)c3ccccc23)C1=O` [Compound 23] are the same in minimal effective concentration: 5 µM for the first, 5 µM for the second.

Same assay, conditions: Sus scrofa; for complete inhibition of apoptosis; SNP 0.5 mM; judged at 18 hours after SNP treatment; read-out: Minimum effective concentration

Going from `Cc1ccc2[nH]cc(C3=C(c4c[nH]c5ccc(C)cc45)C(=O)N(C)C3=O)c2c1` [Compound 40] to `Cc1ccc2c(C3=C(c4c[nH]c5cc(C)ccc45)C(=O)N(C)C3=O)c[nH]c2c1` [Compound 38], the minimal effective concentration falls from 1 µM to 0.3 µM (3.3-fold).

`Cc1cccc2c(C3=C(c4c[nH]c5ccccc45)C(=O)N(C)C3=O)c[nH]c12` [Compound 39] and `CN1C(=O)C(c2c[nH]c3ccccc23)=C(c2c[nH]c3ccc(Cl)cc23)C1=O` [Compound 43] are the same in minimal effective concentration: 3 µM for the first, 3 µM for the second.

Compared with `CN(C)CC1CCn2c(c(C3=C(c4cn(C)c5ccccc45)C(=O)NC3=O)c3ccccc32)C1` (stereo not drawn) [Compound 29], `CN1CCCC1CCn1cc(C2=C(c3c[nH]c4ccccc34)C(=O)NC2=O)c2ccccc21` (stereo not drawn) [Compound 28] is 3-fold higher in minimal effective concentration: 1 µM for the first, 3 µM for the second.

First: c1ccc(N2CC(c3c[nH]c4ccccc34)C(c3c[nH]c4ccccc34)C2)cc1 (stereo not drawn) [Compound 34]
Second: O=C1C(c2c[nH]c3ccccc23)=C(c2c[nH]c3ccccc23)C(=O)N1c1ccccc1 [Compound 48]
The minimal effective concentration of the first is 3.3-fold lower: 0.3 µM for the first, 1 µM for the second.

`CN1C(=O)C(c2c[nH]c3ccccc23)=C(c2cn(C)c3ccccc23)C1=O` [Compound 35] and `CN1C(=O)C(c2cn(C)c3ccccc23)=C(c2cn(C)c3ccccc23)C1=O` [Compound 36] are the same in minimal effective concentration: 10 µM for the first, 10 µM for the second.

Going from `COc1cccc2[nH]cc(C3=C(c4c[nH]c5cccc(OC)c45)C(=O)N(C)C3=O)c12` [Compound 45] to `COc1ccc2[nH]cc(C3=C(c4c[nH]c5ccc(OC)cc45)C(=O)N(C)C3=O)c2c1` [Compound 44], the minimal effective concentration falls from 3 µM to 1 µM (3-fold).

Compared with `O=C1C(c2c[nH]c3ccccc23)=C(c2c[nH]c3ccccc23)C(=O)N1Cc1ccccc1` [Compound 49], `Cc1[nH]c2ccccc2c1C1=C(c2c[nH]c3ccccc23)C(=O)N(C)C1=O` [Compound 46] is 10-fold higher in minimal effective concentration: 1 µM for the first, 10 µM for the second.

Compared with `CN1C(=O)C(c2c[nH]c3ccc(F)cc23)=C(c2c[nH]c3ccc(F)cc23)C1=O` [Compound 41], `CN1C(=O)C(c2c[nH]c3ccc(Br)cc23)=C(c2c[nH]c3ccc(Br)cc23)C1=O` [Compound 42] is 10-fold lower in minimal effective concentration: 10 µM for the first, 1 µM for the second.

`CN1C(=O)C(c2c[nH]c3ccccc23)C(c2cn(CCCN)c3ccccc23)C1=O` (stereo not drawn) [Compound 33] and `CN(C)CCCn1cc(C2=C(c3cn(CCCN(C)C)c4ccccc34)C(=O)N(C)C2=O)c2ccccc21` [Compound 37] are the same in minimal effective concentration: 10 µM for the first, 10 µM for the second.

For `Cc1[nH]c2ccccc2c1C1=C(c2c(C)[nH]c3ccccc23)C(=O)N(C)C1=O` [Compound 47], the minimal effective concentration was 10 µM.

Same assay, conditions: Sus scrofa; for complete inhibition of apoptosis; SNP 0.5 mM; judged at 30 hours after SNP treatment; read-out: Minimum effective concentration

Compared with `O=C1OC(=O)C(c2c[nH]c3ccccc23)=C1c1c[nH]c2ccccc12` [Compound 11], `NCCCn1cc(C2=C(c3c[nH]c4ccccc34)C(=O)NC2=O)c2ccccc21` [Compound 17] is 3.3-fold lower in minimal effective concentration: 10 µM for the first, 3 µM for the second.

With `CCN(CC)c1ccc2c(-c3ccc(S(=O)(=O)NCCCn4cc(C5=C(c6cn(C)c7ccccc67)C(=O)NC5=O)c5ccccc54)cc3S(=O)(=O)[O-])c3ccc(=[N+](CC)CC)cc-3oc2c1` [Compound 31] the minimal effective concentration was 3 µM.

The compounds below were run on Porcine ovarian granulosa cells (POGC) (assay: Test Example 1: inhibition of SNP-induced apoptosis of porcine ovarian granulosa cells). Details: Sus scrofa; for complete inhibition of apoptosis; SNP 0.5 mM; cells observed after 48 hours; read-out: Minimum effective concentration.
Assay type: cell-based
Source text: Porcine ovarian granulosa cells (POGC) were isolated from porcine ovaries and cultured following to a known method (Endocrinology, Vol. 136, p. 3470, 1995). Namely, porcine ovaries were rinsed with PBS buffer, and POGC were collected by aspiration from antral follicles with a syringe. Cell fraction was recovered as a precipitate by centrifugation of the suspension. The operation of suspending the cell fraction into PBS buffer and subjecting the resulting suspension to centrifugation was repeated three times to wash the cells. The POGC obtained as a precipitate were suspended again into a culture medium (DMEM containing 10% fetal bovine serum) and cell clumps were disrupted by pipetting. The cell suspension was passed through a mesh to remove contaminating tissue fragments, and then pipetted in 24-well plates for cell culture. The cell suspension was cultured for 2 days in a CO2 incubator according to a conventional procedure (37°C, 5% CO2). Then, the medium was refreshed to remove floating cells and the culture was continued for further 2 to 3 days until the cells reached subconfluency (0.7 to 2 × 10^5 cell/well). After the attaching cells were washed with serum-free medium, they were cultured in a serum-free DMEM (containing 5 µg/mL of transferrin, and 40 ng/mL of hydrocortisone, 4 mg/mL of bovine serum albumin (BSA), 100 nM androstendione).
The cell death was also confirmed by MTT assay. […] The results are shown in Table 1 where a minimum effective concentration of each compound for complete inhibition of apoptosis is described.

Going from `CN1C(=O)C(Br)=C(c2c[nH]c3ccc(Cl)cc23)C1=O` [Compound 5] to `Cc1ccc2[nH]cc(C3=C(Br)C(=O)N(C)C3=O)c2c1` [Compound 3], the minimal effective concentration falls from 15 µM to 3 µM (5-fold).

Compared with `CN1C(=O)C(Br)=C(c2cn(C(=O)OC(C)(C)C)c3ccc(Cl)cc23)C1=O` [Compound 8], `Cc1ccc2c(c1)c(C1=C(Br)C(=O)N(C)C1=O)cn2C(=O)OC(C)(C)C` [Compound 6] is 2.3-fold lower in minimal effective concentration: 7 µM for the first, 3 µM for the second.

`Cc1cccc2c(C3=C(Br)C(=O)N(C)C3=O)c[nH]c12` [Compound 4] and `Cc1cccc2c(C3=C(Br)C(=O)N(C)C3=O)cn(C(=O)OC(C)(C)C)c12` [Compound 7] are within 1.5-fold of each other in minimal effective concentration: 10 µM for the first, 7 µM for the second.

With `CN1C(=O)C(Br)=C(c2cn(C(=O)OC(C)(C)C)c3ccccc23)C1=O` [Compound 2] the minimal effective concentration was 10 µM.

Same assay, conditions: Sus scrofa; for complete inhibition of apoptosis; SNP 0.5 mM; judged at 18 hours after SNP treatment; read-out: Minimum effective concentration

`CN1C(=O)C(Br)=C(c2c[nH]c3ccccc23)C1=O` [Compound 1, 2-bromo-3-(1H-indol-3-yl)-N-methylmaleimide] and `CN1C(=O)C(Br)=C(c2cn(C)c3ccccc23)C1=O` [Compound 9, 2-bromo-3-(1-methyl-1H-indol-3-yl)-N-methylmaleimide] are the same in minimal effective concentration: 15 µM for the first, 15 µM for the second.

Same assay, conditions: Sus scrofa; for complete inhibition of apoptosis; SNP 0.5 mM; judged at 35 hours after SNP treatment; read-out: Minimum effective concentration

In the case of `CCCCCCCn1cc(C2=C(Br)C(=O)N(C)C2=O)c2ccccc21` [Compound 10], the minimal effective concentration is reported as 3 µM.

The compounds below were run on cerebellar granule cells (assay: Test Example 10: hydrogen peroxide-induced death of cerebellar granule cells). Details: Rattus norvegicus; 10 µM added prior to hydrogen peroxide (10 µM); observation after 12 hours; read-out: cells alive.
Assay type: cell-based, rats
Description: According to a known method (A Dissection and Tissue Culture Manual of the Nervous System, p. 211, 1989, Alan R, Liss, Inc.), cerebellar granule cells were isolated from the cerebellum of 7 days old rats and cultured. Namely, after conducting isolation procedures described in the above literature, the resulting cells were resuspended in DMEM containing 10% fetal bovine serum, 25 mM KCl and 2 mM glutamine, and seeded in poly-lysine coated plates. After the cells were cultured in a CO2 incubator for 48 hours according to a conventional method, cytosine-1-β-D(+)-arabinofuranoside (Ara-C) (10 µM) was added thereto, and the cell was continued to culture. The following experiments were conducted with the cells of 7 to 14 days old from the start day of the culture, the cells having completed neurite extension sufficiently. […] Furthermore, experiments were conducted by increasing a concentration of hydrogen peroxide to 300 µM. In the cases that Test Compound 18 (10 µM), Test Compound 19 (10 µM), or Test Compound 20 (10 µM) were added, about 90%, 90%, and 70% of the cells were alive, respectively, on observations after 16 hours.

`CN1C(=O)C(c2c[nH]c3ccccc23)=C(c2cn(CCCN)c3ccccc23)C1=O` [Compound 19] was tested, and the viability at 10 µM was > 95%.

Same assay, conditions: Rattus norvegicus; 10 µM; hydrogen peroxide 300 µM; observation after 16 hours; read-out: cells alive

`CN1C(=O)C(c2c[nH]c3ccccc23)=C(c2cn(CCCN)c3ccccc23)C1=O` [Compound 19] gave a viability at 10 µM of ~90%.

What follows are compounds tested on 4B2 cells (assay: Test Example 9: SNP-induced apoptosis of 4B2 granulosa cell line). Details: Mus musculus; 10 µM added prior to SNP (0.5 mM); observation after 24 hours; read-out: cells alive.
Assay type: cell-based
Description: Mouse granulosa cells were transfected with SV40 T antigen and cDNA of steroidogenic factor-1 (SF-1/Ad4BP) to establish a cell line, named 4B2. The cell secretes progesterone in response to protein kinase-A. The 4B2 cells were cultured in 48-well culture plates until subconfluency in DMEM containing 10% fetal bovine serum in a CO2 incubator according to a conventional manner. After the medium was switched to DMEM containing 2% fetal bovine serum, SNP (0.5 mM) was added thereto. […] Then, prior to the addition of SNP, Test Compound 13, 14, 17, 20, 24 or 25 (10 µM each) was added to the present medium and observations on cells were made after 24 hours.

`O=C1NC(=O)C(c2c[nH]c3ccccc23)=C1c1c[nH]c2ccccc12` [Compound 13] and `NCCCn1cc(C2=C(c3c[nH]c4ccccc34)C(=O)NC2=O)c2ccccc21` [Compound 17] cannot be ordered by viability at 10 µM: > 95% for the first, > 95% for the second.

`CN1C(=O)C(c2c[nH]c3ccccc23)=C(c2c[nH]c3ccc(Cl)cc23)C1=O` [Compound 24] was tested, and the viability at 10 µM was > 95%.

Source: patent publication EP1057484A1, “CELL DEATH INHIBITORS” (priority 1998, dated 1999)
